Among the data in the METLIN SMRT retention time set (Domingo-Almenara et al. 2019) are RP-LC retention time values, retold here.

The structures appear in SMILES notation.

This data set in a line: gradient 5% acetonitrile 3 min, to 50% in 2 min, to 85% in 15 min, held 3 min, 100 µL/min. The settings on record: column: Zorbax Extend-C18 2.1 x 50 mm; eluents: water / acetonitrile, 0.1% formic acid. A digest of the protocol: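 Values are retention times taken from adduct peaks that software picked and an analyst inspected. The pure standards were run as mixtures of ~100 molecules on HPLC linked to a quadrupole time-of-flight mass spectrometer, in positive and negative ionization mode. A Zorbax Extend-C18 column (2.1 × 50 mm, 1.8 μm) was used at 100 μL/min with water and acetonitrile, each including 0.1% formic acid.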
On to `CC1CCCCN1CCNC(=O)CN1CCN(C(=O)Nc2ccc(Br)cc2)CC1=O` (centres undefined), for which the RP-LC retention time was determined as 610 s. Consider `COc1ccc(OC)c(-c2ccc(SCC(=O)Nc3cc(C)no3)nn2)c1`, for which the RP-LC retention time was determined as 754 s. Consider `Cc1ccc(C)c(S(=O)(=O)N2CCC3(CC2)NCCN=C3NCc2cc(F)cc(F)c2)c1`, for which the RP-LC retention time came out at 774 s. Consider `CN(C)C[C@@H]1CN(c2ncccn2)C[C@H]1NC(=O)c1ccc(Cl)s1`, for which the RP-LC retention time amounted to 605 s. `CC1=C(c2ccccc2)S(=O)(=O)N=C1N1CCCN(C(=O)c2ccc(Cl)cc2)CC1` gave an RP-LC retention time of 863 s. The molecule `CCNC(=O)Nc1ccc2c(c1)CN(S(=O)(=O)c1cnn(CC)c1)CCO2` returned an RP-LC retention time of 704 s. In the case of `CCN1C(=O)C(CC(=O)NCCCN(C)C)Sc2ncccc21` (centres undefined), the RP-LC retention time was 559 s. `O=C(CCc1c(-c2ccccc2)nc2ccccn12)Nc1cccc(Cl)c1` yielded an RP-LC retention time of 692 s. As for `N#Cc1cccc(-c2nc(-c3ccc4c(c3)nnn4CCN3CCCCC3)no2)c1`, the figure is 678 s. In turn, `Cn1nc(N2CCC(NC(=O)c3ccsc3)C2)ccc1=O` (centres undefined) yielded an RP-LC retention time of 640 s. To `CC1CCCCN1C(=O)Cn1c(=O)n(C2CCCCC2)c(=O)c2ccccc21` (centres undefined) belongs 1010 s; to `O=S(=O)(c1ccc(Cl)c(-c2nnc(-c3ccccc3)o2)c1)N(CCO)CCO`, 739 s; to `CCn1cc(CN2CCC(C(=O)NCc3ccc(OC)cc3OC)CC2)c2cc(OC)ccc21`, 716 s. With `Cc1ccc(-c2noc(C3CCCN3C(=O)C3CCN(S(=O)(=O)c4ccc(C)cc4)CC3)n2)cc1` (centres undefined), the RP-LC retention time was 1080 s.

`Cc1noc([C@@H]2CC(F)(F)CN2S(=O)(=O)c2ccccc2C)n1` returned an RP-LC retention time of 909 s.

For the molecule `COc1ccc(Br)c2c1-c1nc(NC(=O)c3ccccc3F)sc1C2`, the RP-LC retention time turned out to be 1130 s. Molecule `COc1cccc(NC(=O)Cn2c(C(C)C)nc3c(c2=O)CN(Cc2ccccc2)CC3)c1` yielded an RP-LC retention time of 687 s. As for `CCN(CC)c1nc(C(=O)Nc2ccc(C(C)=O)cc2)nc2nc(C)cc(C)c12`, the figure is 679 s; as for `Cc1c(C(=O)N2CCCCC2C)sc2ncn(CC(=O)N3CC(C)CC(C)C3)c(=O)c12` (centres undefined), 846 s; as for `O=S(=O)(c1ccccc1)c1nnn2c1nc(N1CCN(c3ccccn3)CC1)c1ccccc12`, 677 s. In turn, `CCCNS(=O)(=O)c1cc(-c2nc(C(C)C)cs2)sc1C` gave an RP-LC retention time of 1160 s.

With `COCCC1(NC(=O)C2CCOCC2)CCN(C(=O)C2CC=CC2)CC1`, the RP-LC retention time came to 632 s.

For `O=C(Nc1ccc(F)cc1)N1CCN(Cc2nc3cccnc3n2-c2ccc(F)cc2)CC1`, the RP-LC retention time was found to be 624 s.

Turning to `COc1cc(CN2C[C@@H]3C(=O)N(CCCN4CCCC4=O)C(=O)[C@@H]3C2)ccc1OC(C)C`, the RP-LC retention time was 610 s. To `Cc1ccnc(OCC(=O)Nc2cc(C)on2)n1` belongs 612 s; to `COC(=O)c1ccc(NS(=O)(=O)c2cc3n(c2)CCN(C(C)C)C3=O)cc1`, 731 s. Consider `CCCCCCC(=O)Nc1nc(-c2ccc(Cl)cc2)cs1`, for which the RP-LC retention time was found to be 1270 s. To `CC(C)NC(=O)CCCN1C(=O)c2ccccc2Sc2ncccc21` belongs 674 s. As to `CCc1ccc(CNC(=O)C2CCCN(c3nc4c(s3)c(C)nn4-c3ccc(C)cc3)C2)cc1` (centres undefined), the RP-LC retention time was 1260 s. To `CCc1nn2c(CNC(=O)c3cccnc3)c(-c3ccccc3)nc2s1` belongs 700 s; to `O=C(C(=O)N1CCN(c2cccc(Cl)c2)CC1)c1c[nH]c2ccccc12`, 710 s; to `CCOc1ccc(CC(=O)N2CCCn3nc(-c4ccc(Cl)cc4)cc3C2)cc1`, 1020 s.

Molecule `CCCNC(=O)CSc1cc(NCc2ccc(Cl)cc2)ncn1` registered an RP-LC retention time of 778 s.

On to `O=C(CCNc1c(-c2ccc(F)cc2)nc2cnccn12)N1CCCCC1`, for which the RP-LC retention time amounted to 730 s. In the case of `CCOc1cc(-c2ccc(C)cc2)nc2ccc(NC(=O)c3ccco3)cc12`, the RP-LC retention time was 764 s. The molecule `C=CCn1c(C)c(CC(=O)Nc2cccc(C)c2)c(=O)n2nc(-c3ccc(C)cc3)nc12` returned an RP-LC retention time of 989 s.

`O=C(NCC1CN(c2ccc(F)cc2)C(=O)O1)c1cc(Cl)ccc1Cl` (centres undefined) came in with an RP-LC retention time of 797 s.

In turn, `CCOC(=O)Cc1ccc(NC(=O)Nc2cccn3cnnc23)cc1` came in with an RP-LC retention time of 698 s. As for `O=C(c1ccsc1)N1CCCC(c2nncn2-c2ccccc2)C1` (centres undefined), the figure is 667 s.

Consider `CCc1ccccc1NC(=O)Nc1ccc2nncn2c1`, for which the RP-LC retention time turned out to be 662 s. To `COc1cccc(C(O)CN2CCN(C3CCCCC3)CC2)c1` (centres undefined) belongs 548 s. `Cc1ccn2c(Nc3ccc4c(c3)OCO4)c(-c3cc(Br)ccc3F)nc2c1` had an RP-LC retention time of 747 s. As for `CSc1ccc(-c2nc3cnccn3c2Nc2ccc(C(=O)O)cc2)cc1`, the figure is 719 s; as for `CC(C)NC(=O)c1ccc(OCC2CCN(C(=O)c3ccc(Cl)cc3)CC2)cc1`, 918 s; as for `COc1ccc(-c2noc(NCC3CCCO3)n2)cc1` (centres undefined), 765 s. For the molecule `CCN1C(=O)COc2ccc(-c3nc(NC(=O)c4ccncc4)sc3C)cc21`, the RP-LC retention time came to 768 s. `CCOc1ccc(N2CC(c3nc(-c4cccc(OC)c4OC)no3)CC2=O)cc1` (centres undefined) yielded an RP-LC retention time of 922 s. To `CCc1ccc(-c2nc(-c3ccc4nnn(C)c4c3)no2)cc1` belongs 1150 s; to `COc1ccc(CNS(=O)(=O)c2c(C)nn(-c3ccc(-c4ccc(C)cc4)nn3)c2C)cc1`, 1070 s; to `CCN(CC)S(=O)(=O)c1cccc(-c2nnc(-c3ccc(Cl)cc3)o2)c1`, 1140 s. To `Cc1cc(Cl)ccc1OCc1nc(-c2cccc(-c3ccn[nH]3)c2)no1` belongs 1090 s; to `CC(=O)Nc1onc(C)c1-c1ccc(C)c(S(=O)(=O)N(C)Cc2ccccc2)c1`, 905 s; to `O=C(Nc1cccc(-c2ccc(N3CCOCC3)nn2)c1)Nc1cccc(C(F)(F)F)c1`, 782 s. In turn, `COc1ccc(NC(=O)C2CCN(C(=O)C3Sc4ccccc4NC3=O)CC2)cc1Cl` (centres undefined) returned an RP-LC retention time of 795 s.

In turn, `CCn1cc(C(=O)Nc2ccc(C)cc2)c2cccnc21` displayed an RP-LC retention time of 859 s. As for `O=C(Cc1cc(-c2ccccc2)on1)NCCN1CCOCC1`, the figure is 566 s; as for `O=C(Cn1nc2c(Oc3cccc(F)c3)nccn2c1=O)Nc1ccc(F)cc1F`, 835 s; as for `Cc1cc(C)cc(NC(=O)C2CCN(S(=O)(=O)c3ccc4[nH]c(=O)sc4c3)CC2)c1`, 851 s.

As to `CCc1cc(=O)n(CC(=O)NCc2ccc3c(c2)OCO3)c(N2CCOCC2)n1`, the RP-LC retention time was 677 s. To `Cc1ccccc1Nc1c(-c2cccc(O)c2)nc2cccc(C)n12` belongs 678 s; to `O=C(NCc1cccc(F)c1)C1CCCN(c2nnc3c(Cl)cccn23)C1` (centres undefined), 701 s. In the case of `Cc1ccnc(N2CCCC(C(=O)NCc3ccc(C)o3)C2)n1` (centres undefined), the RP-LC retention time was determined as 694 s.

With `Cc1ccc(-n2cccc2CC(=O)NC2CCCCC2)cc1`, the RP-LC retention time amounted to 1020 s. As for `COc1ccccc1-c1[nH]ncc1CN1CC(F)(F)C[C@H]1CN1CCOCC1`, the figure is 555 s; as for `O=C(C1CC1)N1CCc2sc(S(=O)(=O)Nc3ccc(N4CCOCC4)cc3)cc2C1`, 743 s; as for `Cc1nc(-c2csc(S(=O)(=O)N3CCC(C(=O)NCc4ccccc4Cl)CC3)c2)no1`, 895 s. As for `Cc1ccc(-c2nc3ccccn3c2NC(=O)Nc2cc(F)ccc2F)cc1`, the figure is 707 s; as for `CC(=O)N1CCc2sc(C(=O)N3CCN(c4ccccc4F)CC3)cc2C1`, 784 s; as for `Cc1nc2c(sc3nc(-c4ccccc4)ccc32)c(=O)n1CC(=O)Nc1ccc(F)c(Cl)c1`, 1140 s. As for `O=C(Nc1ncnc2sccc12)c1ccc([N+](=O)[O-])o1`, the figure is 664 s; as for `COc1ccc(-c2nc3ncc4c(=O)n(CCc5c[nH]c6ccccc56)ccc4n3n2)cc1`, 940 s. `O=C(NC1CCCCC1)N1CC(F)(F)C[C@H]1CN1CCc2ccccc2C1` had an RP-LC retention time of 792 s.

Take `O=C(NCCc1ccccc1)C1c2ccccc2C(=O)N1Cc1ccc2c(c1)OCO2` (centres undefined): the RP-LC retention time was found to be 865 s. To `Cc1cc(=O)n(CC#N)c(N2CCCCC2)n1` belongs 655 s; to `O=C(Nc1ccccc1)C1CCCN(c2nccnc2Sc2ccccc2)C1` (centres undefined), 1060 s; to `COc1ccc2c(c1)[C@]13CCCC[C@@H]1[C@H](C2)N(C)CC3`, 732 s. In turn, `CC1CCN(S(=O)(=O)c2cc(-c3nnc(C(C)C)o3)co2)CC1` came in with an RP-LC retention time of 964 s. Take `O=C(NCCc1c[nH]c2ccc(Cl)cc12)c1ccc(CN2C(=O)CCn3nccc32)cc1`: the RP-LC retention time worked out at 768 s.

Molecule `CCn1c(=O)n(CC)c2cc(NC3=C(C(=O)Nc4ccccc4)S(=O)(=O)c4ccccc43)ccc21` had an RP-LC retention time of 947 s.
